Patent US20250120942A1, “BRAIN FUNCTION IMPROVING AGENT” (OSAKA UNIVERSITY, priority 2021, published 2025)

Tests used:
[1] = tested on: mouse reared in long-term isolation; assay: Novel object recognition test in psychiatric disorder model mouse reared in long-term isolation, single oral dose (Test Example 3); assay type: in vivo, ddY mouse; details: tested 24 hours after administration; for exploratory time of the novel object versus Vehicle group: FIG. 3(A)
Description: The action of ameliorating the lowering of the object cognitive function was examined by orally administering the compound A to the mouse reared in long-term isolation. […] In this test, the mouse reared in long-term isolation under the following condition was used as the psychiatric disorder model mouse.
3-weeks-old male ddY mice were purchased from Japan SLC, Inc. The mice were reared in the rearing chamber provided with air conditioner (Conditions: the temperature was 22° C.±1° C., the relative humidity was 50±10%, and the irradiation time was 12 hours (8:00 to 20:00)). The feeding method was that the commercially available MF powdery feed (manufactured by Oriental Yeast Co., ltd.) and tap water were taken freely.
3-weeks-old male ddY mice (n=63) were separately reared in the gray opaque cage (24×17×12 cm) in which the mice could not see the surrounding of the cage for 6 weeks. […] The mice (n=20) collectively reared in a group of 5 mice in the transparent cage (24×17×12 cm) were used as a control group.
Four days prior to the start of the experiment, long-term isolation and group-reared mice were individually acclimated to the test observation box for 10 minutes for three consecutive days. […]
24 hours after the oral administration, the evaluation test for novel object cognitive function was carried out. One object of two objects put in the observation box was replaced with the novel object and the time how long the mouse explored the novel object was measured in the test time of 5 minutes. The object cognitive function of the mouse was evaluated by Discrimination index (%) calculated using the following formula. […]
From the results obtained, the mean (Mean) and the standard error (SEM) were calculated. The significant difference was assessed between the administration group and the control group by using Student's t-test as a method of the statistical processing of the exploratory time and by using Turkey-Kramer's test as a method of the statistical processing of Discrimination index. […]

[2] = tested on: extracellular acetylcholine in the cerebral cortex; assay: Amount of extracellular acetylcholine in mouse brain by in vivo microdialysis (Test Example 1); set-up: species or system ddY mouse; details: oral 30 mg/kg, FIG. 1
Description: The compound A, B, and C were administered orally to the mouse and the effect on the amount of extracellular acetylcholine in the brain was examined. The brain microdyalysis method using the mouse is proposed as a test for evaluating cognitive dysfunction including Alzheimer type dementia. The brain microdyalysis method is a system that can monitor the variation of extracellular neurotransmitter release in real time at the local parts in the brain while the test animals are moving freely without anesthesia.
7-weeks-old male ddY mice were purchased from Japan SLC, Inc. and subjected to the experiment after one week habituation period. The animals were reared in the rearing chamber provided with air conditioner (under the condition that the temperature was 22° C.±1° C., the relative humidity was 50±10%, and the irradiation time was 12 hours (8:00 to 20:00)). The feeding method was that the commercially available MF powdery feed (manufactured by Oriental Yeast Co., ltd.) and tap water were taken freely.
In the two days before the start of the experiment, the fixing operation of the guide cannula for inserting the dialysis probe in the mouse was conducted in advance. Under the deep anesthetized conditions, the guide cannula (depth 4 mm) (manufactured by Eicom Corp.,) was inserted in and fixed on cerebral cortex prefrontal area (which was 1.9 mm forward and 0.5 mm right side from the bregma and to which the depth from cranial surface was 0.8 mm). Buprenorphine (0.01 mg/kg manufactured by Sigma-Aldrich Japan) was administered to the mouse as analgesic after the operation. Each mouse was reared in the separate cage after the operation.
In the step of measuring extracellular acetylcholine in the brain, the dialysis probe (membrane length 3 mm) (manufactured by Eicom Corp.,) was inserted in the guide cannula and the Ringer's solution in the Japanese Pharmacopeia (containing NaCl (147.2 mM), KCl (4.0 mM), and CaCl2 (2.2 mM); manufactured by FUSO CHEMICAL CO., LTD.) was perfused at the flow velocity of 1 μL/min. The sample obtained by the perfusion was collected every 20 minutes and was immediately continuously automatically injected in the high-speed liquid chromatography/electrochemical detector (HPLC/ECD) system (manufactured by Eicom Corp., HTEC-500) together with the internal standard material (isopropylhomocholine, 250 fmol) and acetylcholine was measured under the condition described below.
• Column: Eicompak AC-GEL (2.0 mm; i.d.×150 mm) (manufactured by Eicom Corp.,) • Precolumn: PC-05-03 (3.0 mm; i.d.×40 mm) (manufactured by Eicom Corp.,) • Enzyme-immobilized column: AC-Enzympak (3.0 mm; i.d.) (manufactured by Eicom Corp.,) • Mobile Phase: 50 mM potassium hydrogen carbonate buffer containing 400 mg/L sodium decansulfonic acid and 134 μM EDTA (pH 8.3) • Flow Velocity: 150 μl/min. • Temperature of column: 33° C. • Applied voltage of ECD: +450 mV • Reference electrode: Ag/AgCl electrode • Work electrode: platinum electrode
The compound A prepared according to the procedure described in Manufacturing Example 1 was dissolved in 2.5% DMSO solution in advance to prepare for the test. […] The amount of the extracellular acetylcholine released was measured by the procedure described above in (a) Used animal and Rearing Procedure in real time for 120 minutes after the administration. The mouse in Vehicle group took only 2.5% DMSO solution orally in the same way and the amount of the extracellular acetylcholine was measured. […]

In the case of `O=C1CC[C@H](Cc2cc(O)cc(O)c2)O1` [compound A, (R)-5-(3,5-dihydroxyphenyl)-γ-valerolactone], the “exploratory time of the novel object versus Vehicle group” value ([1]; oral 10 mg/kg) is reported as “significantly increased”, the “exploratory time of the novel object versus Vehicle group” value ([1]; oral 30 mg/kg) is reported as “significantly increased” and the Discrimination index ([1]; oral 30 mg/kg, FIG. 3(B)) is reported as “equal to the score obtained in the group of the mice reared in a group”. For the same molecule, the “amount of extracellular acetylcholine in the cerebral cortex versus Vehicle group” value ([2]; 40 and 60 minutes after the administration) was “significant increase” and the “amount of extracellular acetylcholine in the cerebral cortex (ratio to basic released amount)” value ([2]; measured for 120 minutes after administration, compared with before administration) was “increased”.
